According to ChEMBL document CHEMBL1201862, “PubChem BioAssay data set” (2004):
One block for each compound: values may come before it. Activity calls are given as the source filed them.

Experiments:
[1] = target: DNA (cytosine-5)-methyltransferase 1 (Homo sapiens, UniProt P26358); experiment: DNMT1 methyltransferase inhibitors, confirmation, biochemical, fluorescent molecular beacon (AID 602386); assay type: functional
[2] = target: T1, Voltage-gated N-type calcium channel alpha-1B subunit/Amyloid beta A4 precursor protein-binding family A member 1 (Homo sapiens, UniProt Q00975+Q02410); assay type: protein assay
[3] = target: T2, Carboxy-terminal domain RNA polymerase II polypeptide A small phosphatase 1 (Homo sapiens, UniProt Q9GZU7); experiment: inhibitors of CTDSP1, concentration-response testing, biochemical assay, absorbance-based, actives from ultra-high-throughput screening (AID 540297); assay type: functional
T2 sequence (Q9GZU7 whole entry): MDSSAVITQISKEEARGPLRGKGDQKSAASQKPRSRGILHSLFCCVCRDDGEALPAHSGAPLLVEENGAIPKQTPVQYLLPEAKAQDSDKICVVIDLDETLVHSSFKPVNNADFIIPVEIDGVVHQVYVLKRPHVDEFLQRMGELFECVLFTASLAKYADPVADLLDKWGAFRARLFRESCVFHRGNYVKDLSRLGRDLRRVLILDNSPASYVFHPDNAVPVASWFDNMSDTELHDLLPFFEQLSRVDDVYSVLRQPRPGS

ORF 73 = target: T3, ORF 73 (Human herpesvirus 8, UniProt O40947); experiment: inhibitors of C-LANA binding to LBS DNA, dose response, biochemical, fluorescence polarization, cherry-picked samples (AID 504725); design: species or system Human gammaherpesvirus 8;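 also: fluorescence polarization of a labeled DNA duplex reporting LANA DNA binding; potency is for inhibitors that block LANA binding to the DNA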
T3 sequence (O40947 whole entry): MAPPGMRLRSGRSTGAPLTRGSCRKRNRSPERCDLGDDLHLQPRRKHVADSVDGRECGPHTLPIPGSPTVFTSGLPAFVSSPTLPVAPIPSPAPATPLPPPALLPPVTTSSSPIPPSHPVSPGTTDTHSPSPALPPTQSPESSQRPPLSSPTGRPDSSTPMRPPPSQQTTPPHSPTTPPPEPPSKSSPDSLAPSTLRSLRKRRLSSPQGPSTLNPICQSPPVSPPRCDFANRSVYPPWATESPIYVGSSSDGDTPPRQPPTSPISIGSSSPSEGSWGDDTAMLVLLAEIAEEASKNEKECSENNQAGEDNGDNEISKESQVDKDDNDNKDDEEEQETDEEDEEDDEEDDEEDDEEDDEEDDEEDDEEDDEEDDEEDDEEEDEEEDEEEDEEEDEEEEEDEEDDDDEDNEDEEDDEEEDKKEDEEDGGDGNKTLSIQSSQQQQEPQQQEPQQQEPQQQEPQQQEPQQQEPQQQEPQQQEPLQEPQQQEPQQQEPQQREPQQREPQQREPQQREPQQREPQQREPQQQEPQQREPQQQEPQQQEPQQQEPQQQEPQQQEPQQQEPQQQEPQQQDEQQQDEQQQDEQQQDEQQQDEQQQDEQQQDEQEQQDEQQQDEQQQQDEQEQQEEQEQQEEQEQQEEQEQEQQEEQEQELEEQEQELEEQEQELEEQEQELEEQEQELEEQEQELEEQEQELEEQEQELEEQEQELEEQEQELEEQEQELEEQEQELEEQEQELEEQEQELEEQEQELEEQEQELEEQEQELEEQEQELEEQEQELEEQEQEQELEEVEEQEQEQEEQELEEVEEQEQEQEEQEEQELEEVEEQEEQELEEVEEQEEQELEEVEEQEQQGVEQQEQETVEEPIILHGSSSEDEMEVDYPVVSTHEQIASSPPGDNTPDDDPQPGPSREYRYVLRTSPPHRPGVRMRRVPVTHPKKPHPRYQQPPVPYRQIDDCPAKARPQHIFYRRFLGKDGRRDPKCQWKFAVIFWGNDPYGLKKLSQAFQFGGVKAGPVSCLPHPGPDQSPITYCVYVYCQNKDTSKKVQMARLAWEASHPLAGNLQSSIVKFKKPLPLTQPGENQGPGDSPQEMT

[4] = target: T1, Voltage-gated N-type calcium channel alpha-1B subunit/Amyloid beta A4 precursor protein-binding family A member 1; assay type: protein assay; remark: listed apart in the source
Orexin receptor type 2 [5] = target: T4, Orexin receptor type 2 (Homo sapiens, UniProt O43614); experiment: Counterscreen assay for antagonists of the orexin 1 receptor (OX1R; HCRTR1): Fluorescence-based cell-based dose response assay for antagonists of the orexin 2 receptor (OX2R; HCRTR2), run by assay provider.; assay type: functional
T4 sequence (O43614 whole entry): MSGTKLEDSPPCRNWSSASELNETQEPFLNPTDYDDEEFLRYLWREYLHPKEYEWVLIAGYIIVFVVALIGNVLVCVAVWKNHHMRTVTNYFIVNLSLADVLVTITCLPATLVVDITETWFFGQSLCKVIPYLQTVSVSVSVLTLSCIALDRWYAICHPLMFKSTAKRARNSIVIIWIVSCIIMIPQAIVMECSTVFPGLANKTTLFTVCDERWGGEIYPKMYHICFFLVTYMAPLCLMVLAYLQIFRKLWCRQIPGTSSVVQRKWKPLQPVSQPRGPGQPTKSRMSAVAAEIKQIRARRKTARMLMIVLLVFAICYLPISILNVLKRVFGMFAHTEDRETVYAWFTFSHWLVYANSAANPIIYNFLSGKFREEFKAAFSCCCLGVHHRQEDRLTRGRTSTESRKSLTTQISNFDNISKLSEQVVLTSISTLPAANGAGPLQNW

[6] = target: T5, Orexin/Hypocretin receptor type 1 (Homo sapiens, UniProt O43613); experiment: (§1) Fluorescence-based cell-based high throughput dose response assay for antagonists of the orexin 1 receptor (OX1R; HCRTR1). [Related pubchem assays (depositor defined):AID434989, AID435008, AID463079, AID485270, AID492963, AID492964, AID492965, AID493232, AID504717, AID504718]; assay type: functional
T5 sequence (O43613 whole entry): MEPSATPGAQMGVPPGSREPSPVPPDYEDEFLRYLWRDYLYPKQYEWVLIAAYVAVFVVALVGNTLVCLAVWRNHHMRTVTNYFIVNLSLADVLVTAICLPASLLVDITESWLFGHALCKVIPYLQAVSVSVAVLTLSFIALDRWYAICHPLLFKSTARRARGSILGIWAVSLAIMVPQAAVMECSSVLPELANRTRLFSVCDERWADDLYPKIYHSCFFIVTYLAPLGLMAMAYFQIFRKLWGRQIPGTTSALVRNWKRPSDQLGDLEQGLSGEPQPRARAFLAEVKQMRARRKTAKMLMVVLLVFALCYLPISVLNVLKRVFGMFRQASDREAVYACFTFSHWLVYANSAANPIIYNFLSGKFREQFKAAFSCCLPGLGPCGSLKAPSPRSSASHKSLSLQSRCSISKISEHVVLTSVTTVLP

CHO-K1 = experiment: (§2) Counterscreen for antagonists of the orexin 1 receptor (OX1R; HCRTR1): Homogeneous time resolved fluorescence (HTRF)-based cell-based dose response assay to identify antagonists of the parental CHO-K1 cell line. [Related pubchem assays (depositor defined):AID434989, AID435008, AID463079, AID485270, AID492963, AID492964, AID492965, AID493232, AID504699, AID504701]; assay type: functional; settings: Cricetulus griseus
[7] = target: T5, Orexin/Hypocretin receptor type 1; experiment: as §1, with “Homogeneous Time Resolved Fluorescence (HTRF)-based” for “Fluorescence-based”; assay type: functional
Orexin receptor type 2 [8] = target: T4, Orexin receptor type 2; experiment: Counterscreen assay for antagonists of the orexin 1 receptor (OX1R; HCRTR1): Homogeneous Time Resolved Fluorescence (HTRF)-based cell-based dose response assay for antagonists of the orexin 2 receptor (OX2R; HCRTR2), run by assay provider.; assay type: functional
[9] = as §2, with “Fluorescence-based” for “Homogeneous time resolved fluorescence (HTRF)-based”, “cell-based high throughput” for “cell-based”, “CHO” for “CHO-K1”; assay type: functional
[10] = target: T6, Polyadenylate-binding protein 1 (Homo sapiens, UniProt P11940); experiment: PABP1 MLLE–PAM2 binding inhibitor potency, dose response, biochemical, fluorescence polarization, FITC-PAM2 peptide (AID 602259); assay type: functional; settings: read-out: IC50_Mean
[11] = target: T6, Polyadenylate-binding protein 1; experiment: PABP1 MLLE–PAM2 interaction inhibitors, dose response, miRNA deadenylation inhibitor project, biochemical, fluorescence polarization, Cy5-PAM2 peptide, secondary (AID 602260); assay type: functional; settings: read-out: IC50_Mean
[12] = CRF-BP/CRF-R2 complex antagonists, dose response, cell-based, uHTS hits, 384-well (AID 651639); assay type: functional, Homo sapiens; settings: read-out: IC50_Mean
[13] = target: T7, Corticotropin-releasing factor receptor 2/Corticotropin-releasing factor-binding protein (Homo sapiens, UniProt P24387+Q13324); experiment: activators of CRF receptor 2 with binding protein – uHTS hits, confirmation (AID 602473); assay type: functional; settings: read-out: EC50_Mean
T7 sequence (Q13324 whole entry): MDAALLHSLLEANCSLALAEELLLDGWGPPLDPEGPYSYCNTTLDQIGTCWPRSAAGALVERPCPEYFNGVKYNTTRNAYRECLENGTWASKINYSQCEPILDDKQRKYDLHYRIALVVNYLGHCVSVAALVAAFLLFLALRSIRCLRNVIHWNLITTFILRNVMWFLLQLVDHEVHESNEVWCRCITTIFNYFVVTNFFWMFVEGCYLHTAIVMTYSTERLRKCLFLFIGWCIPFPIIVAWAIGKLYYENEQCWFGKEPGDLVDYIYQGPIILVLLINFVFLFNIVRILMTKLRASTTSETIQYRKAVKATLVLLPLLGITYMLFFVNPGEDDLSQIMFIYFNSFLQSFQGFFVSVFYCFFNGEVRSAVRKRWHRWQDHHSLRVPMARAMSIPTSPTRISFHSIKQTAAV
T7 sequence (P24387 whole entry): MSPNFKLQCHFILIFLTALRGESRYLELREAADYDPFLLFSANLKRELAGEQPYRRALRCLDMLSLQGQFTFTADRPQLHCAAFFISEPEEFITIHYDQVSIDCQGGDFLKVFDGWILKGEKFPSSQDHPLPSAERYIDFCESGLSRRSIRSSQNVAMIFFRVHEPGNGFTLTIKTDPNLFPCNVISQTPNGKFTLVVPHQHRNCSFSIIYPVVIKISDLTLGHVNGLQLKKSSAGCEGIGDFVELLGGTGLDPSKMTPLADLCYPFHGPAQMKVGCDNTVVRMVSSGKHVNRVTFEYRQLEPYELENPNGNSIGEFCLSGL

[14] = target: T7, Corticotropin-releasing factor receptor 2/Corticotropin-releasing factor-binding protein; experiment: Dose Response confirmation of uHTS hits for small molecule antagonists of the CRF-binding protein and CRF-R2 receptor complex.; assay type: functional; settings: read-out: IC50_Mean
Melanocortin receptor 4 = Melanocortin receptor 4 (Homo sapiens, UniProt P32245); assay type: functional, cell-based;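 also: Cell-based assay with luminescence read-out, confirmatory dose-response testing for agonist activity of biased ligands at MC4R; human U2OS cells with tagged receptor and beta-arrestin; potency of agonists that increase receptor coupling to beta-arrestin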
[15] = target: T8, ATP-dependent translocase ABCB1 (Homo sapiens, UniProt P08183); experiment: ABCB1 efflux inhibitor potency, dose response, Jurkat-DNR cells, JC-1, flow cytometry, set 2 (AID 504569); assay type: functional; settings: read-out: EC50_MICROM_;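 also: potency of pump inhibitors that raise cellular JC-1 green fluorescence up to the nicardipine level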
[16] = target: T8, ATP-dependent translocase ABCB1; experiment: ABCG2 efflux pump inhibitor potency, dose response, Ig-MXP3 cells, JC-1, flow cytometry, set 2 (AID 504566); assay type: functional; settings: read-out: EC50_MICROM_;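 also: flow cytometry median green fluorescence of retained JC-1 dye; potency of efflux pump inhibition measured as rising substrate retention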
[17] = target: Dual specificity tyrosine-phosphorylation-regulated kinase 1B (Homo sapiens, UniProt Q9Y463); experiment: Navigating the Kinome. Panel member name: DYRK1B; assay type: functional
[18] = target: Macrophage-stimulating protein receptor (Homo sapiens, UniProt Q04912); experiment: Navigating the Kinome. Panel member name: MST1R; assay type: functional
LIM domain kinase 1 = LIM domain kinase 1 (Homo sapiens, UniProt P53667); experiment: Navigating the Kinome. Panel member name: LIMK1; assay type: functional
[19] = target: ALK tyrosine kinase receptor (Homo sapiens, UniProt Q9UM73); assay type: functional;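 also: ALK tested as one member of a kinase panel screen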

T8 sequence (P08183 whole entry): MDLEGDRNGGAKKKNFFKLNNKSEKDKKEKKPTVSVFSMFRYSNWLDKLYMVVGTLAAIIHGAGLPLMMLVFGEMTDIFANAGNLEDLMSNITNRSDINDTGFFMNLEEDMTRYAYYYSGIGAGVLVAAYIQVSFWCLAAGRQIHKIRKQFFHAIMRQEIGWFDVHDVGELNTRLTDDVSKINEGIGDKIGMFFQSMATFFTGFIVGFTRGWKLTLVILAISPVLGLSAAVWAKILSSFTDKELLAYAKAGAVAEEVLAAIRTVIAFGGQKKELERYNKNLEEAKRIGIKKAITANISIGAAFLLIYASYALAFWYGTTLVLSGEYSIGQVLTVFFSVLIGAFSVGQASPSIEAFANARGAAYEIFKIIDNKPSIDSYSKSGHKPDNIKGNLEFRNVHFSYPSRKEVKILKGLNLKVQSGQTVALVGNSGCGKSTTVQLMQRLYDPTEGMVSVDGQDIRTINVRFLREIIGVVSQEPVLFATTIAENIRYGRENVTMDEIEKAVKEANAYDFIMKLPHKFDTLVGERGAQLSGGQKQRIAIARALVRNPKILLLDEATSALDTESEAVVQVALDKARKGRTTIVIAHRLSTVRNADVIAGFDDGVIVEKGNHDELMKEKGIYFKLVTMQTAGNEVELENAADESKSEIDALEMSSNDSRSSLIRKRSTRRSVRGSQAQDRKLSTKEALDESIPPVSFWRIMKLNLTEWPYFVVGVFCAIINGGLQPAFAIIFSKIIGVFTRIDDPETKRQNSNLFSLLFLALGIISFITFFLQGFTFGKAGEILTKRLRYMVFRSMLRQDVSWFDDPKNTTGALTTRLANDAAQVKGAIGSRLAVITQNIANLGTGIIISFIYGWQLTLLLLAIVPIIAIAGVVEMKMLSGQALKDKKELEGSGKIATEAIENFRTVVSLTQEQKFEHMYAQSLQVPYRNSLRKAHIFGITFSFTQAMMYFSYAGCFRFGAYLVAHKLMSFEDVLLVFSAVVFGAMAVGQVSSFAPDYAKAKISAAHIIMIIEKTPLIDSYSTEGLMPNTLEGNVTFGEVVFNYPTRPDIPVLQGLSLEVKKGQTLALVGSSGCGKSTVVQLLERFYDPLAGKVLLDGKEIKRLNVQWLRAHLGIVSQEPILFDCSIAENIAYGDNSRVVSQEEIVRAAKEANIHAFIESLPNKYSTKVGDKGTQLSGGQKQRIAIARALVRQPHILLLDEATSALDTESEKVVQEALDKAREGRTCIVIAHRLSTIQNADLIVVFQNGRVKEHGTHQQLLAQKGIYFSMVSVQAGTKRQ
T6 sequence (P11940 whole entry): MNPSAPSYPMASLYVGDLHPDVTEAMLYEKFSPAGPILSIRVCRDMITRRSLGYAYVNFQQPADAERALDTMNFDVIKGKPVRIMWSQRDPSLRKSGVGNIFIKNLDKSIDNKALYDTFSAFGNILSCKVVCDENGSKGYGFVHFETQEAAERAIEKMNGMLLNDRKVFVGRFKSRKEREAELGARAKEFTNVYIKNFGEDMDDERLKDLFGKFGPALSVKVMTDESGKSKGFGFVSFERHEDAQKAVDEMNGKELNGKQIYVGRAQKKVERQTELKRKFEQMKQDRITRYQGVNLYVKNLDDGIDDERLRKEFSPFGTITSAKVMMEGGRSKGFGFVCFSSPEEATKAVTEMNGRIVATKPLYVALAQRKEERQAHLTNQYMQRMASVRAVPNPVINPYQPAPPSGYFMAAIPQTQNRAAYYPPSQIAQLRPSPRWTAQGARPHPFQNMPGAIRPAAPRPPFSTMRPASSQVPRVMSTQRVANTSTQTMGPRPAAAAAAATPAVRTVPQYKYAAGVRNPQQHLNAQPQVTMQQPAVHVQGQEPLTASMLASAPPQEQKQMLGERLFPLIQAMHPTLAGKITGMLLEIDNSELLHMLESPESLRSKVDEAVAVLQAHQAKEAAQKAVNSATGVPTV
T1 sequence (Q00975 whole entry, the tested form may be a part): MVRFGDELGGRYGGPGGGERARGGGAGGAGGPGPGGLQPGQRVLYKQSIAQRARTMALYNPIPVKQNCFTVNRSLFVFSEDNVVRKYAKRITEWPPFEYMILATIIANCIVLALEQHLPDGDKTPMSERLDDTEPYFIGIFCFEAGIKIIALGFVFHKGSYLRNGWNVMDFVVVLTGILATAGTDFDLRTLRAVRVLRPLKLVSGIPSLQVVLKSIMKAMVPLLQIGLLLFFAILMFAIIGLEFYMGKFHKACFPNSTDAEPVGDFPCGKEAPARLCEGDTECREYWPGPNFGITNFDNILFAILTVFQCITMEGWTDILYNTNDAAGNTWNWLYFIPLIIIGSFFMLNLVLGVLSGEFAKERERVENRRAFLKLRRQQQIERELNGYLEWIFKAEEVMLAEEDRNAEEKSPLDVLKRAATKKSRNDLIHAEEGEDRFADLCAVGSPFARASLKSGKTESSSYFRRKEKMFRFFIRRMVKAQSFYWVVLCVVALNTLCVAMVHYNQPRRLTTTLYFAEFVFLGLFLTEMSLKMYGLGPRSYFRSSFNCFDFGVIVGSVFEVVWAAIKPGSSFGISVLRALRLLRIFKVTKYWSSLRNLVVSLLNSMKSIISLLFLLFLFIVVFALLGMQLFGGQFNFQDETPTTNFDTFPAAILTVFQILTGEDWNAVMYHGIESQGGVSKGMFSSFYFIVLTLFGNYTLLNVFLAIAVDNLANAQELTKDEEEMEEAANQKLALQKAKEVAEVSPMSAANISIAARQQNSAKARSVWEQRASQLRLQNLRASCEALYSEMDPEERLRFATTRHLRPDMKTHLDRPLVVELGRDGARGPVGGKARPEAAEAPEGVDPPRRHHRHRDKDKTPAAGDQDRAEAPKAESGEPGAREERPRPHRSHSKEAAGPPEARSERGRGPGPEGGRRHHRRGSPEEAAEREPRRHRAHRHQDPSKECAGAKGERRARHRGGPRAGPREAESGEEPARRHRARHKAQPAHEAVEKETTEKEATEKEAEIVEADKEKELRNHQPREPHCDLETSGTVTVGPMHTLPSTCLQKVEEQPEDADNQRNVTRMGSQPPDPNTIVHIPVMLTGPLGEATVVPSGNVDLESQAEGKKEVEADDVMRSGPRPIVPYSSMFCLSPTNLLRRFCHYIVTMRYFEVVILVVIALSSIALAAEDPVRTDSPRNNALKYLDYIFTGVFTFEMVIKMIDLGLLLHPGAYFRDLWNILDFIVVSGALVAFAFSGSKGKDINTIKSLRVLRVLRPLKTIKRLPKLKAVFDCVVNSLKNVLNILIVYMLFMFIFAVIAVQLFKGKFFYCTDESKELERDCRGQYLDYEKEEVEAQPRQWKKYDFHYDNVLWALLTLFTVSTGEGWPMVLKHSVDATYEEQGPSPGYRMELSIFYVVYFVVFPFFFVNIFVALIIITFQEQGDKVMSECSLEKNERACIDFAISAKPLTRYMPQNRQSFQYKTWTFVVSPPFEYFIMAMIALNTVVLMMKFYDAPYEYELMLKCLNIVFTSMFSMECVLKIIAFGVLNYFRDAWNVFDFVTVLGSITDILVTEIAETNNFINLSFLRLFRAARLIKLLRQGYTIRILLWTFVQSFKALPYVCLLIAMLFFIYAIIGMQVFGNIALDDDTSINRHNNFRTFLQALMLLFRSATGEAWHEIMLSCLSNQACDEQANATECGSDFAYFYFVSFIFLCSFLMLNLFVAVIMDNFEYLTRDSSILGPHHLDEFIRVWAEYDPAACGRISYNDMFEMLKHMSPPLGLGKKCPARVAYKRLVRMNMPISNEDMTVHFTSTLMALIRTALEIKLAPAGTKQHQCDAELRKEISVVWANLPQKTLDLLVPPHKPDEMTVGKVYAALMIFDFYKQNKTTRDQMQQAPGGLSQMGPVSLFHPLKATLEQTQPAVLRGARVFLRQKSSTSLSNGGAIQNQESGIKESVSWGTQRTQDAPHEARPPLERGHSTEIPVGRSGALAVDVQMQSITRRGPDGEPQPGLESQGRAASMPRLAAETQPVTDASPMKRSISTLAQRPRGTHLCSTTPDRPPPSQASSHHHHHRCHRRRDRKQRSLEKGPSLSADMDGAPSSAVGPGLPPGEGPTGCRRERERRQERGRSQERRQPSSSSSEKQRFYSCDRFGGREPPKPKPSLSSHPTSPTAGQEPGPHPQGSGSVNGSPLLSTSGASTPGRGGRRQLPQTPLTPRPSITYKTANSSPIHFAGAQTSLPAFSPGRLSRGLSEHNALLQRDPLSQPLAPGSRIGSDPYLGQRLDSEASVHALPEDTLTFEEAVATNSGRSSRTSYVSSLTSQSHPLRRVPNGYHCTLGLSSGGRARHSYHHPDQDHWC
T1 sequence (Q02410 whole entry, the tested form may be a part): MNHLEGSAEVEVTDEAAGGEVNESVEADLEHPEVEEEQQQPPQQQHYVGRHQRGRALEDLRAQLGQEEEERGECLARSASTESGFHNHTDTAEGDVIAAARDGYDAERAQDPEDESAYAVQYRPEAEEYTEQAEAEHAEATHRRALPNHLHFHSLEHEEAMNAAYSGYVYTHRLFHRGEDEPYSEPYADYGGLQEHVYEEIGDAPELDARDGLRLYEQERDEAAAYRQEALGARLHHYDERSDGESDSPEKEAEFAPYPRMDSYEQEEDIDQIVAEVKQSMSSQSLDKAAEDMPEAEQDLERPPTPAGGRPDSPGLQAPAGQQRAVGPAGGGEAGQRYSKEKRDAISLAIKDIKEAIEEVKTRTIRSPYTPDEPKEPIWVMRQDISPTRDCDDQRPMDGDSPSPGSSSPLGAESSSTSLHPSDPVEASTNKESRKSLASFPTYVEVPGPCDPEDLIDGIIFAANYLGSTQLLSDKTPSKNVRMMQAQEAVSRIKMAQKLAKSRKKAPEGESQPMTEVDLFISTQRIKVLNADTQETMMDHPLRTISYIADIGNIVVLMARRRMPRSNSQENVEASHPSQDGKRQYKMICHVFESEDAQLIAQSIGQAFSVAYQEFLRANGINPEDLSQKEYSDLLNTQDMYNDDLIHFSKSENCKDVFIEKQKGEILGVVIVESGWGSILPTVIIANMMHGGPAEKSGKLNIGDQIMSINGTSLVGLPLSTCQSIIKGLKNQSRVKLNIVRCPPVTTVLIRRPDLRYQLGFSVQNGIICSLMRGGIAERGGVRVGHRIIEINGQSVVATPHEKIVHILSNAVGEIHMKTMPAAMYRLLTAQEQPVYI

IC50 [1]: 1.45 µM (active) | IC50 [2]: 1.84 µM (active) | IC50 [3]: 0.408 µM (active) | AC50 (ORF 73): 17.9 µM (active) | IC50 [4]: > 50 µM (inactive)
SMILES: C=C(C)C(=O)Nc1cccc(C2=NOC3(C2)C[C@@H](C(N)=O)N(C(=O)C2(C)CC2)C3)c1 (some centres undefined)

SMILES: Cc1ccc(N(C)S(=O)(=O)c2cccc(C(=O)NCC(c3cccs3)N3CCOCC3)c2)cc1 (centres undefined)
IC50 (Orexin receptor type 2 [5]): > 88.8 µM (inactive) | IC50 [6]: 12 µM (inactive) | IC50 (CHO-K1): > 66.2 µM (inactive) | IC50 [7]: 0.715 µM (active) | IC50 (Orexin receptor type 2 [8]): 3.35 µM (active) | IC50 [9]: > 49.8 µM (inactive)

SMILES: O=C(NC(=S)Nc1cccc2cccnc12)c1cccs1
IC50 (Orexin receptor type 2 [5]): > 88.8 µM (inactive) | IC50 [6]: > 5.52 µM (active) | IC50 (CHO-K1): > 66.2 µM (inactive) | IC50 [7]: > 0.00331 µM (active) | IC50 (Orexin receptor type 2 [8]): > 50 µM (inactive) | IC50 [10]: > 66 µM (inactive) | IC50 [9]: > 49.7 µM (inactive) | IC50 [11]: > 66 µM (inactive)

IC50 [12]: 19.8 µM (active) | EC50 [13]: > 53 µM (inactive) | IC50 [14]: 2.98 µM (active)
SMILES: CCCCNC(=O)CCn1c(=O)c2ccccc2n(Cc2ccccc2C)c1=O

EC50 (Melanocortin receptor 4): > 89.2 µM (inactive)
SMILES: O=C(NC(c1ccccc1)c1ccsc1)C1CCN(CCOc2ccc(Cl)cc2Cl)CC1 (centres undefined)

EC50 [15]: 6 µM (active) | EC50 [16]: 1.98 µM (active)
SMILES: O=C(c1ccoc1)N1CCCN(c2cc(-c3ccccc3)nc3cc(-c4cccc(Cl)c4)nn23)CC1

Ki [17]: 2 µM (active) | Ki [18]: 3.16 µM (active) | Ki (LIM domain kinase 1): 0.631 µM (active) | Ki [19]: 1.58 µM (active)
SMILES: Nc1ccc2cc(NCCc3ccccc3)cc(Nc3ncccn3)c2n1
